Test [1] deals with T1, GPR84 (Homo sapiens, UniProt Q9NQS5).
T1 construct: expressed in transfected cells
In words: GPR84 [35S]GTPγS binding assay, Tris buffer (alternative). It counts as biochemical. As to conditions: 3,3′ di indolylmethane at EC80, membranes from stable cell line over expressing GPR84, read-out: Alternative GPR84 assay GTPγS IC50 (GPR84-2). How it is done:
1.1. Cell Based Assay: GTp-γ S Binding Assay.
The following assay can be used for determination of GPR84 activation. The [^35S]GTPγS binding assay measures the level of G protein activation following agonist occupation of a GPCR, by determining the binding of the non-hydrolysable analog [^35S]GTPγS to Gα subunits.
Alternatively, the assay is performed in a 96 well plate where the following reagents are added. First 50 μL compound is added into the assay plate, followed by addition of 20 μL 3,3′ di indolylmethane at EC80 concentration (concentration which gives 80% of the activity of GPR84). In a last step, 30 μL of a mixture consisting of membranes-GTPγS-SpA beads is added [mixture consists of 20 μg/well membranes derived from stable cell line over expressing GPR84 (membranes are pre-incubated with 0.1 μM GDP for 15 min at 4° C.), 0.1 nM [^35S]GTPγS (Perkin Elmer, NEG030) and 0.5 mg/well PVT-WGA SpA beads (Perkin Elmer, RPNQ0001)]. All components are diluted in assay buffer containing 20 mM Tris pH 7.5; 5 mM MgCl2; 250 mM NaCl; 0.05% BSA; 75 ug/mL saponin Reactions are incubated for 90 min at room temperature followed by centrifugation at 2000 rpm during 15 min. Plates are read on a Topcount reader (Perkin Elmer) immediately after centrifugation (readout time, 1 min/well).
Background: Binding of GTPγS marks nucleotide exchange on a G protein.

The subject of test [2] is human neutrophils. In words: Human neutrophil migration assay (embelin-induced chemotaxis). It counts as cell-based. Particulars: Neutrophil; neutrophils from human buffy coats; embelin at EC80. The procedure: 2.1. Human Neutrophil Migration Assay
The effect of agonists or antagonists for GPR84 can therefore be assayed in a neutrophil migration test. In the neutrophil migration assay, neutrophils, freshly isolated from buffy coats from human volunteers, are treated with a compound for 30 min Subsequently, the neutrophils are transferred to the upper wells of a Corning HTS transwell 96 permeable support system, of which the lower wells are filled with a embelin solution at EC80 (concentration which gives 80% of the activity of GPR84). After 1 h of incubation, migration of the neutrophils towards embelin in the lower compartment can be quantified by measuring the ATP-content of the lower wells using the ATPlite luminescence ATP detection assay system (Perkin Elmer, Cat. No.: 436110).
2.1.1 Isolation of Neutrophils from Human Buffy Coat
A human buffy coat is diluted with an equal volume of ice cold DPBS. 20 mL of the diluted buffy coat is gently mixed with 4 mL of ACD buffer (140 mM citric acid, 200 mM sodium citrate and 220 mM dextrose). Then, 12 mL of the 6% dextran/0.9% NaCl solution (15 g dextran T2000 and 2.25 g NaCl dissolved in 250 mL H2O) is added to the mixture and the samples are inverted gently up to 20 times. The total volume was transferred to a new recipient and incubated at room temperature for 1 h for complete separation of the two phases to occur. The yellowish supernatant is then transferred to a clean centrifugation tube and centrifuged for 12 min at 1300 rpm and 4° C. After centrifugation, the supernatant is discarded and the remaining cell pellet is rapidly resuspended in 12 mL of ice-cold H2O for red blood cell lysis to occur. After 20 seconds, 4 mL of ice-cold 0.6 M KCl is added. Samples are mixed carefully and centrifuged for 6 min at 1300 rpm, 4° C. The supernatant is discarded and the red blood cell lysis procedure is repeated one more time. Subsequently, the cell pellet is resuspended in 4 mL of DPBS and layered over 5 mL of Lymphoprep (Nycomed Pharma, Cat. No.: 1114545) in a 15 mL centrifuge tube. After centrifugation for 12 min at 1300 rpm, 4° C., the supernatant is removed and the cell pellet, containing the neutrophils, is resuspended in 25 mL chemotaxis buffer (RPMI 1640 medium, supplemented with 10 mM HEPES; freshly made for each experiment)
A cell suspension of 8.9×10^6 cells per milliliter is prepared. 20 μL of compound solution in chemotaxis buffer is added to 180 μL cell suspension. The mixture is incubated at 37° C. for 30 min with intermediate resuspension of the cells after 15 min Following this, 70 μL cell suspension is transferred to the upper compartment of a Corning HTS transwell 96 permeable support system with 5.0 μm pore size polycarbonate membrane (Corning, Cat. No.: 3387). The receiver well of the transwell system is then filled with 200 μL chemotaxis buffer containing compound and chemotactic agent (embelin). After incubation at 37° C. in 5% CO2 for 1 h, the upper plate of the transwell system is removed and the cell suspension in the receiver plate is transferred to a 96-well V-bottom plate. 50 μL of DPBS is added to the receiver plate to prevent remaining cells from drying out. The V-bottom plate is centrifuged for 6 min at 1500 rpm. The supernatant is removed and the cells are resuspended in 50 μL DPBS. The cells are then transferred back to the receiver plate of the transwell system. After this, 100 μL ATPlite solution (Perkin Elmer, Cat. No: 436110) was added to the cells. The plate is incubated for 10 min in the dark, while shaking. […] of cell lysate is then transferred to a white 96-well plate and luminescence is measured. The detected luminescent signal is considered as linearely related to the number of cells having migrated from the upper well to the receiver well.

The results in this text go back to US9708312B2, “Dihydropyrimidinoisoquinolinones and pharmaceutical compositions thereof for the treatment of inflammatory disorders (GPR84 antagonists)” (GALAPAGOS NV, priority 2012, dated 2017).

T1 sequence (Q9NQS5 whole entry): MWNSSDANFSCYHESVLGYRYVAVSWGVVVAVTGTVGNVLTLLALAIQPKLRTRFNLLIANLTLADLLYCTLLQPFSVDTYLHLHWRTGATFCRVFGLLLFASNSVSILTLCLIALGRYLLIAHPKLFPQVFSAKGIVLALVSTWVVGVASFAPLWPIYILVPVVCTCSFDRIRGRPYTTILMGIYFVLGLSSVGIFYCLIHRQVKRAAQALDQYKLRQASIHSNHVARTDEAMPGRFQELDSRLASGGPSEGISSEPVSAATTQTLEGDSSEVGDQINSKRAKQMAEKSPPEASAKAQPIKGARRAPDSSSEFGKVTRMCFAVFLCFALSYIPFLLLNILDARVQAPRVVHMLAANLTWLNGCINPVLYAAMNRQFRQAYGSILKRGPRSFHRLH

On to `COCC#Cc1ccc2c(c1)CCn1c-2cc(OCC2COc3ncccc3O2)nc1=O` (stereo not drawn) [compound 132, 2-(2,3-dihydro-[1,4]dioxino[2,3-b]pyridin-2-ylmethoxy)-9-(3-methoxy-prop-1-ynyl)-6,7-dihydro-pyrimido[6,1-a]isoquinolin-4-one], for which the IC50 (as a rule, the concentration at which inhibition is half-maximal) in test [1] was in the range of 100 to 500 nM; in test [2], 0.01 to 100 nM. For `N#Cc1ccccc1-c1ccc2c(c1)CCn1c-2cc(OCC2COc3ncccc3O2)nc1=O` (stereo not drawn) [compound 125, 2-[2-(2,3-Dihydro-[1,4]dioxino[2,3-b]pyridin-2-ylmethoxy)-4-oxo-6,7-dihydro-4H-pyrimido[6,1-a]isoquinolin-9-yl]-benzonitrile] the same measures were 100 to 500 nM and 0.01 to 100 nM. In the case of `O=c1nc(OCC2COc3ncccc3O2)cc2n1CCc1cc(C#CCO)ccc1-2` (stereo not drawn) [compound 138, 2-(2,3-dihydro-[1,4]dioxino[2,3-b]pyridin-2-ylmethoxy)-9-(3-hydroxy-prop-1-ynyl)-6,7-dihydro-pyrimido[6,1-a]isoquinolin-4-one], in test [1], the IC50 lay within 0.01 to 100 nM. Take `COc1ccc(-c2ccc3c(c2)CCn2c-3cc(OCC3COc4ncccc4O3)nc2=O)cn1` (stereo not drawn) [compound 118, 2-(2,3-Dihydro-[1,4]dioxino[2,3-b]pyridin-2-ylmethoxy)-9-(6-methoxy-pyridin-3-yl)-6,7-dihydro-pyrimido[6,1-a]isoquinolin-4-one]: the IC50 in test [1] and in test [2] was 0.01 to 100 nM each time.

On to `CC(C)(C)C#Cc1ccc2c(c1)CCn1c-2cc(OCC2CCCO2)nc1=O` (stereo not drawn) [compound 120, 9-(3,3-dimethyl-but-1-ynyl)-2-(tetrahydro-furan-2-ylmethoxy)-6,7-dihydro-pyrimido[6,1-a]isoquinolin-4-one], for which the IC50 in test [1] lay within 500 to 1000 nM. Turning to `Cc1cc(COc2ccc3c(c2)CCn2c-3cc(OCC3COc4ncccc4O3)nc2=O)nn1C` (stereo not drawn) [compound 134, 2-(2,3-Dihydro-[1,4]dioxino[2,3-b]pyridin-2-ylmethoxy)-9-(1,5-dimethyl-1H-pyrazol-3-ylmethoxy)-6,7-dihydro-pyrimido[6,1-a]isoquinolin-4-one], the IC50 in test [1] and in test [2] was 0.01 to 100 nM each time. Turning to `O=c1nc(OCC2CCCO2)cc2n1CCc1cc(OCc3cccc4ccccc34)ccc1-2` (stereo not drawn) [compound 38, 9-(naphthalen-1-ylmethoxy)-2-(tetrahydro-furan-2-ylmethoxy)-6,7-dihydro-pyrimido[6,1-a]isoquinolin-4-one], in test [1], the IC50 lay within 500 to 1000 nM. The same measure, in the same setting: next, `O=c1nc(OCC2CCCO2)cc2n1CCc1cc(C#CC3CC3)ccc1-2` (stereo not drawn) [compound 119, 9-cyclopropylethynyl-2-(tetrahydro-furan-2-ylmethoxy)-6,7-dihydro-pyrimido[6,1-a]isoquinolin-4-one]: 100 to 500 nM; `O=c1nc(OCC2COc3ncccc3O2)cc2n1CCc1cc(-c3cccnc3)ccc1-2` (stereo not drawn) [compound 124, 2-(2,3-Dihydro-[1,4]dioxino[2,3-b]pyridin-2-ylmethoxy)-9-pyridin-3-yl-6,7-dihydro-pyrimido[6,1-a]isoquinolin-4-one]: 0.01 to 100 nM.

On to `Cc1ccc(-c2ccc3c(c2)CCn2c-3cc(OCC3COc4ncccc4O3)nc2=O)cn1` (stereo not drawn) [compound 139, 2-(2,3-dihydro-[1,4]dioxino[2,3-b]pyridin-2-ylmethoxy)-9-(6-methyl-pyridin-3-yl)-6,7-dihydro-pyrimido[6,1-a]isoquinolin-4-one], for which the IC50 in test [1] and in test [2] was 0.01 to 100 nM each time. Consider `COc1ccc(-c2ccc3c(c2)CCn2c-3cc(OCC3CCCO3)nc2=O)cn1` (stereo not drawn) [compound 110, 9-(6-methoxy-pyridin-3-yl)-2-(tetrahydro-furan-2-ylmethoxy)-6,7-dihydro-pyrimido[6,1-a]isoquinolin-4-one], for which, in test [1], the IC50 was 100 to 500 nM.

On to `N#CCCC#Cc1ccc2c(c1)CCn1c-2cc(OCC2COc3ncccc3O2)nc1=O` (stereo not drawn) [compound 143, 5-[2-(2,3-dihydro-[1,4]dioxino[2,3-b]pyridin-2-ylmethoxy)-4-oxo-6,7-dihydro-pyrimido[6,1-a]isoquinolin-9-yl]-pent-4-ynenitrile], for which the IC50 in test [1] lay in the range of 0.01 to 100 nM. As for `O=c1nc(OCC2COc3ncccc3O2)cc2n1CCc1cc(C#Cc3ccncc3)ccc1-2` (stereo not drawn) [compound 137, 2-(2,3-dihydro-[1,4]dioxino[2,3-b]pyridin-2-ylmethoxy)-9-pyridin-4-ylethynyl-6,7-dihydro-pyrimido[6,1-a]isoquinolin-4-one], the IC50 in test [1] and in test [2] was 0.01 to 100 nM in each case. On to `O=c1nc(OCC2CCCO2)cc2n1CCc1cc(-c3ccc4ccccc4c3)ccc1-2` (stereo not drawn) [compound 113, 9-naphthalen-2-yl-2-(tetrahydro-furan-2-ylmethoxy)-6,7-dihydro-pyrimido[6,1-a]isoquinolin-4-one], for which the IC50 in test [1] was 0.01 to 100 nM. In the case of `O=c1nc(OCC2COc3ncccc3O2)cc2n1CCc1cc(C#CC3(O)CCCC3)ccc1-2` (stereo not drawn) [compound 142, 2-(2,3-Dihydro-[1,4]dioxino[2,3-b]pyridin-2-ylmethoxy)-9-(1-hydroxy-cyclopentylethynyl)-6,7-dihydro-pyrimido[6,1-a]isoquinolin-4-one], the IC50 in test [1] and in test [2] was 0.01 to 100 nM in each case. For `CC(C)(C)C#Cc1ccc2c(c1)CCn1c-2cc(OCC2COc3ncccc3O2)nc1=O` (stereo not drawn) [compound 144, 2-(2,3-dihydro-[1,4]dioxino[2,3-b]pyridin-2-ylmethoxy)-9-(3,3-dimethyl-but-1-ynyl)-6,7-dihydro-pyrimido[6,1-a]isoquinolin-4-one], the IC50 in test [1] lay within 0.01 to 100 nM. The same measure, in the same setting: next, `Cc1noc(C)c1-c1ccc2c(c1)CCn1c-2cc(OCC2CCCO2)nc1=O` (stereo not drawn) [compound 112, 9-(3,5-dimethyl-isoxazol-4-yl)-2-(tetrahydro-furan-2-ylmethoxy)-6,7-dihydro-pyrimido[6,1-a]isoquinolin-4-one]: 100 to 500 nM; `O=c1nc(OCC2COc3ncccc3O2)cc2n1CCc1cc(-c3cncnc3)ccc1-2` (stereo not drawn) [compound 128, 2-(2,3-dihydro-[1,4]dioxino[2,3-b]pyridin-2-ylmethoxy)-9-pyrimidin-5-yl-6,7-dihydro-pyrimido[6,1-a]isoquinolin-4-one]: 0.01 to 100 nM; `NC(=O)c1cccc(-c2ccc3c(c2)CCn2c-3cc(OCC3COc4ncccc4O3)nc2=O)c1` (stereo not drawn) [compound 129, 3-[2-(2,3-Dihydro-[1,4]dioxino[2,3-b]pyridin-2-ylmethoxy)-4-oxo-6,7-dihydro-4H-pyrimido[6,1-a]isoquinolin-9-yl]-benzamide]: 0.01 to 100 nM. With `Cc1cccc(COc2ccc3c(c2)CCn2c-3cc(OCC3CCCO3)nc2=O)c1` (stereo not drawn) [compound 34, 9-(3-methyl-benzyloxy)-2-(tetrahydro-furan-2-ylmethoxy)-6,7-dihydro-pyrimido[6,1-a]isoquinolin-4-one], the IC50 in test [1] was 100 to 500 nM.
